Data published in patent US10179914B2, “CDC25A inhibitor for the treatment of drug resistant cancer or for the prevention of tumor relapse” (INSERM (INSTITUT NATIONAL DE LA SANTÉ ET DE LA RECHERCHE …, priority 2014, dated 2019).

Legend:
[1] = tested on: MV4-11 cells (FLT3-ITD positive); assay: Cell proliferation, trypan blue counting, MV4-11; type: cell-based, human; details: 200 nM
Method: (§1) (a) MV4-11 and MOLM-14 FLT3-ITD positive cells, KG1, HL-60 and TF-1 FLT3 wild type cells, and K562 FLT3 negative cells were cultured in the presence of the CDC25 inhibitor IRC-083864 (200 nM). Cells were harvested each day and counted after trypan blue coloration. The graph represents three independent experiments.
(b) MOLM-14 and MV4-11 cells were transfected with CDC25A siRNA for 24 hours, and cells were counted after trypan blue coloration (upper panel). The efficiency of CDC25A siRNA was estimated by western blot analysis (lower panel). ns: non specific.
Cell lines and reagents. Human acute myeloid leukemia cell lines MOLM-14 (Matsuo Y et al, Leukemia 1997) (kindly provided by Martin Carroll, University of Pennsylvania, Philadelphia, Pa., USA) MV4-11, K562 (ACC-102 and ACC-10, DSMZ, Braunschweig, Germany) and FLT3-ITD-expressing murine BaF3 cells were cultured in RPMI 1640 medium (Gibco, Life Technologies, Carlsbad, Calif., USA) supplemented with 10% fetal bovine serum (Sigma, Saint Louis, Calif., USA). TF-1 (ATCC-CRL2003) cells were cultured in RPMI 1640 medium with 10% fetal bovine serum and GM-CSF 2 ng/ml. […]
siRNA. […] Twenty-four or forty-eight hours after transfection, cells were counted (trypan blue staining), and western blotting was performed.

[2] = tested on: C/EBPα Ser21 phosphorylation, c-myc, C/EBPε; assay: Western blot of differentiation markers in MOLM-14; type: cell-based, human; details: MOLM-14, 100 nM
Method: (a-b) MOLM-14 and MV4-11 cells were treated for different times with IRC-083864 (100 nM and 200 nM) and the expression of the cell surface markers CD11b, CD14 and CD15 were followed by flow cytometry analysis. (c) MOLM-14 and MV4-11 cells were treated for different times with IRC-083864 (100 nM) and morphological changes were estimated by microscopy after cells were cytospun and stained at days 8 and 13. Original magnification ×100. (d) MOLM-14 cells were treated for different times with IRC-083864 (100 nM) and c-myc expression as well as C/EBPα phosphorylation on serine 21 were analyzed by western blot at day 1, and C/EBPε expression after 6 days of treatment. (e) MOLM-14 cells were transfected with CDC25A shRNA The expression of the cell surface markers CD11b, CD14 and CD15 were followed by flow cytometry analysis at day 3 and 6 (upper panel), and their morphology was analyzed by microscopy after 6 days (lower panel). Original magnification ×100. (f) MOLM-14 cells were transfected with CDC25A siRNA, and their morphology was analyzed by microscopy after 3 days (upper panel). Original magnification ×100. The efficiency of CDC25A siRNA was assessed by western blot analysis (lower panel).
Western blot. 2×10^6 cells were usually lysed in 100 μL of NuPAGE® LDS Sample Buffer (Novex, Life Technologies, Carlsbad, Calif., USA), sonicated for 15 seconds, and boiled for 3 minutes. Proteins were then resolved on NuPAGE® 4-12% Bis-Tris Gels and transferred to nitrocellulose membrane. Saturation of the membrane was done for 1 hour in Tris Buffer Saline with Tween 0.1% (TBS-T) containing 5% non-fat milk or 5% bovine serum albumin. Membranes were blotted with proper antibodies overnight at 4° C., washed thrice with TBS-T, and incubated for 30 minutes with HRP-conjugated secondary antibody (Promega, Madison, Wis., USA). […]

[3] = tested on: K562 cells (FLT3 negative); assay: Cell proliferation, trypan blue counting, K562; type: cell-based, human; details: 200 nM
Method: as §1
Cell lines and reagents. Human acute myeloid leukemia cell lines MOLM-14 (Matsuo Y et al, Leukemia 1997) (kindly provided by Martin Carroll, University of Pennsylvania, Philadelphia, Pa., USA) MV4-11, K562 (ACC-102 and ACC-10, DSMZ, Braunschweig, Germany) and FLT3-ITD-expressing murine BaF3 cells were cultured in RPMI 1640 medium (Gibco, Life Technologies, Carlsbad, Calif., USA) supplemented with 10% fetal bovine serum (Sigma, Saint Louis, Calif., USA). TF-1 (ATCC-CRL2003) cells were cultured in RPMI 1640 medium with 10% fetal bovine serum and GM-CSF 2 ng/ml. Concerning MOLM-14 cell line, the presence of a monoallelic 21 bp FLT3-ITD mutation and of an MLL-containing ins(11; 9)(q23;p22p23) were verified (Hematology laboratory of Toulouse University Hospital, Prof E. Delabesse and Dr I. Luquet). KG1 and HL-60 (ACC-14 and ACC-3, DSMZ) cell lines were grown in Iscove's Modified Dulbecco's Medium (IMDM, Gibco) plus 20% FBS. All cells were grown in the presence of 100 units/ml of penicillin and streptomycin (Invitrogen) at 37° C. and 5% CO2.

[4] = with these regimens; cited from earlier work
[5] = tested on: human cell lines (tumor cell proliferation); details: compared with BN82685; cited from earlier work

With `Cc1nc2c(s1)C(=O)C=C(NCCCN(C)CCCNC1=CC(=O)c3nc(-c4cc(F)ccc4F)oc3C1=O)C2=O` [IRC-083864] the “proliferation of MV4-11” value [1] was “robust inhibition”, the “C/EBPα phosphorylation on serine 21” value ([2]; day 1) was “dephosphorylation” and the c-myc expression ([2]; day 1) was “down-regulation”. The C/EBPε expression ([2]; day 6) was “up-regulation”, the “proliferation of K562” value [3] was “did not decrease” and the apparent toxicity [4] was “No sign of apparent toxicity”. For the same compound, the “potency of tumor cell proliferation inhibition” value [5] was “equivalent to that of BN82685”.
